Earlier results, collected in article PMC11481577, “Allosteric coupling of substrate binding and proton translocation in MmpL3 transporter from Mycobacterium tuberculosis” (mBio, 2024).

Biological target: MmpL3
Conditions: previously measured; read-out: affinity to MmpL3; cited from earlier work

| Substance | Kd |
| --- | --- |
| phosphatidylethanolamine [PE] | 19.5 ± 6.3 µM |
| trehalose monomycolates [TMM] | 3.7 ± 1.3 µM |
